According to ChEMBL document CHEMBL1201862, “PubChem BioAssay data set” (2004):
Active and inactive are the calls of the source.

Legend:
cells [1] = type: functional
cells [2] = type: functional, cell-based
[3] = test system: Streptococcus sp. 'group A'; experiment: Streptococcus pyogenes SK(-)GAS viability under kanamycin – luminescence, BacTiterGlo, confirmation, counter-screen for streptokinase expression inhibitor project, dose response (AID 1900); type: functional, organism-based
[4] = Trypanosoma cruzi growth suppression in host cells – NIH3T3 host cells, beta-gal luminescence, confirmation (AID 2044); type: functional, cell-based;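 also: intracellular parasites grown in NIH/3T3 mouse fibroblasts as host cells; luminescent beta-galactosidase reporter signal from transgenic T. cruzi replicating inside host cells; inhibitors lower the luminescence signal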
Streptococcus = experiment: GAS UMAA2166 growth inhibition – luminescence, BacTiterGlo, counter-screen for streptokinase expression inhibitor project, dose response (AID 1915); type: functional, organism-based;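 also: potency for reduction of bacterial viability or growth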
[5] = HepG2 cell cytotoxicity, dose response, cytotoxicity control for non-replicating M. tuberculosis project (AID 489018); type: functional; conditions: Mycobacterium tuberculosis
cells [6] = type: functional, cell-based; remark: listed apart in the source
[7] = luciferase reporter signal suppression in cells – H4 neuroglioma cells, luminescence, dose response (AID 1990); type: functional, cell-based
Streptokinase A = target: T1, Streptokinase A (Streptococcus pyogenes serotype M1, UniProt P10520); experiment: viability-normalized secreted streptokinase activity reduction – plasminogen activation absorbance, OD405, dose response (AID 1914); type: functional, Streptococcus pyogenes M1 GAS;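 also: secreted streptokinase activity via plasminogen activation per viability signal from cell pellet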
T1 sequence (P10520 whole entry): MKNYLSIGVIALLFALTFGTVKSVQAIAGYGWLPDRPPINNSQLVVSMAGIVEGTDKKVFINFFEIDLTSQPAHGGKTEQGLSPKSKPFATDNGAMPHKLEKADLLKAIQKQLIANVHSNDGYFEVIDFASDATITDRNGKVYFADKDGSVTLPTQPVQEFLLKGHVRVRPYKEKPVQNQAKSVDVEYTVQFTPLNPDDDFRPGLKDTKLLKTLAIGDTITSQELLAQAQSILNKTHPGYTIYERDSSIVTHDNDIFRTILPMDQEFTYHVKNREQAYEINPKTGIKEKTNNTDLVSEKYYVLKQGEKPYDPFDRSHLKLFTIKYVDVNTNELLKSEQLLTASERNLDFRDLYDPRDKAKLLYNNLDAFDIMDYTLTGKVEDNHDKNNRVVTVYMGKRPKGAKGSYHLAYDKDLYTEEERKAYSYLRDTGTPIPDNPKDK

[8] = Luminescence Cell-Based Dose Response HTS to Identify Inhibitors of 5'UTR Stem-Loop Driven Prion Protein mRNA Translation in H4 Neuroglioblastoma Cells. [Related pubchem assays: 1827 (Project Summary), 1813 (Primary HTS)]; type: functional
[9] = THP-1 cell cytotoxicity, dose response, cytotoxicity control for non-replicating M. tuberculosis project (AID 489025); type: functional
[10] = NIH3T3 cell viability loss – ATP luminescence, mouse fibroblasts, counter-screen, dose response (AID 2010); type: functional, cell-based;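 also: cells exposed to compound for about 90 hours before reading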
[11] = alpha-synuclein stem-loop luciferase translation blockers – H4 neuroglioma cells, luminescence, confirmation (AID 1988); type: functional, cell-based
[12] = Vero E6 cell cytotoxicity, dose response, cytotoxicity control for non-replicating M. tuberculosis project, secondary assay (AID 492998); type: functional, VeroE6; conditions: Vero C1008
[13] = microbe, parasite or virus in culture; type: functional; conditions: Mycobacterium tuberculosis
[14] = OVCAR-3 cell viability loss – plate reader, dry powder samples, PAX8 inhibitor project, dose response (AID 743044); type: functional, cell-based
Paired box protein Pax-8 = Paired box protein Pax-8 (Homo sapiens, UniProt Q06710); experiment: PAX8 transcriptional activity inhibition in RMG-I – RMG-I cells, luciferase, cherry-pick, dose response (AID 687027); type: functional, cell-based;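 also: luciferase reporter driven by Pax8 target thyroperoxidase promoter measured by SteadyGlo luminescence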
[15] = OVCAR8 cell viability loss – plate reader, dry powder samples, PAX8 project, dose response (AID 743197); type: functional, cell-based; conditions: OVCAR-8
[16] = target: T2, Microphthalmia-associated transcription factor (Homo sapiens, UniProt O75030); experiment: reducers of TRPM1 reporter luminescence, concentration series – cell-based, SK-MEL-5, cherry-picked, set 3, MITF inhibitor project, dose response (AID 493073); type: functional;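 also: SK-MEL-5 melanoma cells with luciferase driven by the MITF target TRPM1 promoter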
T2 sequence (O75030 whole entry): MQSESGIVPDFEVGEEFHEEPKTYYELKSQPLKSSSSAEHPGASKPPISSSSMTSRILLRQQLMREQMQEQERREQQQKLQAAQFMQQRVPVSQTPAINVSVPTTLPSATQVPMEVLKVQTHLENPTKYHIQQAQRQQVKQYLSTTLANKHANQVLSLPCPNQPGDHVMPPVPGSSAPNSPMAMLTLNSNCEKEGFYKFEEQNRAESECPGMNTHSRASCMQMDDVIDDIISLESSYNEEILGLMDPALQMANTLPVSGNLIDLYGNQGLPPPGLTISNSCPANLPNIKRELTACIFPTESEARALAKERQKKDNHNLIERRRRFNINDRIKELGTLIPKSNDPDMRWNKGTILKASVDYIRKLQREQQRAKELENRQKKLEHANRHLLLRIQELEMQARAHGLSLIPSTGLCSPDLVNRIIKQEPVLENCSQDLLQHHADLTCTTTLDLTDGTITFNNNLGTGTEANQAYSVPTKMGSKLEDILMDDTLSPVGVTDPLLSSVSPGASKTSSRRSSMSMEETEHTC

[17] = target: T3, Calpain-2 catalytic subunit (Sus scrofa, UniProt P43367); experiment: m-calpain protease blockers, concentration series – biochemical, fluorogenic peptide substrate, dose response (AID 1420); type: functional
T3 sequence (P43367 whole entry): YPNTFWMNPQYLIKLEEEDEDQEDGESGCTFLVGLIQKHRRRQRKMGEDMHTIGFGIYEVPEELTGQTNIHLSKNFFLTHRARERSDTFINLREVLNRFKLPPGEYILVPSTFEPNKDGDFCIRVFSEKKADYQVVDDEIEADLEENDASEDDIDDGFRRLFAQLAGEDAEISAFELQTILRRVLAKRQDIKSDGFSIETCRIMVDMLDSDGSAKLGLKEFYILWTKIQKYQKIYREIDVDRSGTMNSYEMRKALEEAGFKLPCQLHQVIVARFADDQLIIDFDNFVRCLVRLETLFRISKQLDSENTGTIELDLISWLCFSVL

[18] = HEK-293T cell viability reduction – luminescence, B-cell screen hits, cytotoxicity control for BCR NF-kB inhibitor project, dose response (AID 489021); type: functional, cell-based;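 also: HEK-293T cells carrying an NF-kB luciferase reporter; cells exposed to compound for about 14 hours before viability readout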
[19] = Luminescence Cell-Based Dose Confirmation HTS to Identify Inhibitors of Platelet Dense Granule Release. [Related pubchem assays: 1663 (Primary HTS), 1678 (Summary of Project)]; type: functional
[20] = target: Luciferin 4-monooxygenase (Photinus pyralis, UniProt P08659); experiment: inhibition of purified Photinus pyralis luciferase – biochemical, luminescence, dose response (AID 1891)
[21] = growth inhibition of yeast DHODH-expressing 3D7 parasites – SYBR Green, dry powder samples, dose response (AID 1159570); type: functional, cell-based;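 also: parasite growth measured after 72 hours of compound exposure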
[22] = P. falciparum Dd2 growth inhibitors, dose response, SYBR Green, cherry-picked samples (AID 1159567); type: functional, cell-based
[23] = growth inhibition of PfATP4-mutant resistant parasites – NITD609-resistant line, SYBR Green, dry powder, dose response (AID 1159571); type: functional, cell-based;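 also: parasites synchronized at ring stage by sorbitol before testing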
[24] = Dd2 malaria parasite growth inhibition potency – SYBR Green, dry powder samples, dose response (AID 1159566); type: functional, cell-based;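 also: potency for growth inhibition with lower SYBR green DNA signal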
[25] = target: T4, High affinity choline transporter 1 (Homo sapiens, UniProt Q9GZV3); experiment: human choline transporter blockers, potency – cell-based, 5-point CRC, membrane potential dye, dose response (AID 504840); type: functional
T4 sequence (Q9GZV3 whole entry): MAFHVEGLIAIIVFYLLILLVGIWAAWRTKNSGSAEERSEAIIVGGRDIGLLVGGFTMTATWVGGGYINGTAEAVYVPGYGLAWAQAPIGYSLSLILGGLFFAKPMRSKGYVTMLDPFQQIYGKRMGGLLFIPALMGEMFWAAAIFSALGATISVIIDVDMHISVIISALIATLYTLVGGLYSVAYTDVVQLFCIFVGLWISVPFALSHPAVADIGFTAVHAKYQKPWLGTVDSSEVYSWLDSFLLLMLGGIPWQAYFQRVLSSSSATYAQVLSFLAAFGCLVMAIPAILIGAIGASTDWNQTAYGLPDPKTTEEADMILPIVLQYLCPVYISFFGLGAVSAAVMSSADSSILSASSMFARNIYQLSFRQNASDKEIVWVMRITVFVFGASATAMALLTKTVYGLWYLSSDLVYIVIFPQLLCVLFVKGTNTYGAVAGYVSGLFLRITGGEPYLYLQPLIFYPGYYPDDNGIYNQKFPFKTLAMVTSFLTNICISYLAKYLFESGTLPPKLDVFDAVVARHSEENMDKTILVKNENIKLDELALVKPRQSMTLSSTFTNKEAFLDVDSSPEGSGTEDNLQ

Sequence of Paired box protein Pax-8 (Q06710 whole entry): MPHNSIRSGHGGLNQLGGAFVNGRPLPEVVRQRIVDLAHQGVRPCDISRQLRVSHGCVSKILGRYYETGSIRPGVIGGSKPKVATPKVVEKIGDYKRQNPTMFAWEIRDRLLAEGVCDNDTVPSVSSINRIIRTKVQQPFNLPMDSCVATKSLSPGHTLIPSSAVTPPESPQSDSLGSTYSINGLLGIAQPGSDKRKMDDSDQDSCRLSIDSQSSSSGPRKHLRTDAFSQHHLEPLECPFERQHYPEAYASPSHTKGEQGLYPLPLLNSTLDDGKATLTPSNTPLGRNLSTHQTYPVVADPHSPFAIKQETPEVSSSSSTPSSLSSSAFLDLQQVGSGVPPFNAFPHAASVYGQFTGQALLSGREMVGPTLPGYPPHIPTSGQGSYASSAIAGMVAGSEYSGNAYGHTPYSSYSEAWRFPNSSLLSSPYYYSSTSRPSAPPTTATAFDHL
Sequence of Luciferin 4-monooxygenase (P08659 whole entry): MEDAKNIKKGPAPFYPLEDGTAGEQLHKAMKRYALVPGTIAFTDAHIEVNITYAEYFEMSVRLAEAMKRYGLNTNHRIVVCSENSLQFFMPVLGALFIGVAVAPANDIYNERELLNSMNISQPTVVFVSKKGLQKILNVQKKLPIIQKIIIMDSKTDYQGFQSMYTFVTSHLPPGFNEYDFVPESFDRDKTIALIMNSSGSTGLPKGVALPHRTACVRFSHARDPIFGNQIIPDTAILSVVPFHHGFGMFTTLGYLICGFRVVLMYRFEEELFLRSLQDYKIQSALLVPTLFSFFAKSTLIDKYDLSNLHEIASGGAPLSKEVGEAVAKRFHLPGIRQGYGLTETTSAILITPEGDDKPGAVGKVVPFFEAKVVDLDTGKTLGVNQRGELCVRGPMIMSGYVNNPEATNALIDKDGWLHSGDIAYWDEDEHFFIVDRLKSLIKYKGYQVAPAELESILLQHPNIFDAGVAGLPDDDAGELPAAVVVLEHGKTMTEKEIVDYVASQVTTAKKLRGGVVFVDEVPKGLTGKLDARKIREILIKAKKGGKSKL

Cc1nnc(-c2ccccc2)c(=O)n1/N=C/c1c(O)ccc2ccccc12
IC50 (cells [1]): 35.3 µM (active) | EC50 (cells [2]): > 350 µM (not active) | EC50 [3]: 2.7 µM (active) | EC50 [4]: 1.16 µM (active) | EC50 (Streptococcus): 36.2 µM (active) | CC50 [5]: > 20 µM (active) | EC50 (cells [6]): 25.7 µM (active) | EC50 [7]: > 120 µM (not active) | EC50 (Streptokinase A): > 150 µM (not active) | EC50 [8]: 9.49 µM (active) | CC50 [9]: 3.63 µM (active) | EC50 [10]: 1.97 µM (active) | EC50 [11]: > 120 µM (not active) | CC50 [12]: 8.43 µM (active) | CC50 [13]: 18.9 µM (active)

C[C@H]1CCCCO[C@H](CN(C)S(=O)(=O)c2ccc(F)cc2)[C@@H](C)CN([C@@H](C)CO)C(=O)c2cc(NS(=O)(=O)c3ccc(Cl)cc3)ccc2O1
AC50 [14]: 49.2 µM (active) | AC50 (Paired box protein Pax-8): 5.92 µM (active) | AC50 [15]: 60.6 µM (active)

O=C(NC(=S)NCc1ccccc1)c1ccccc1
AC50 [16]: 22.1 µM (active)

O=C(CCCN1C(=O)/C(=C/c2ccccc2Cl)SC1=S)NNC(=O)c1ccc(Cl)cc1Cl
IC50 [17]: > 50 µM (not active) | EC50 [7]: 0.675 µM (active) | IC50 [18]: > 80 µM (inactive) | EC50 [8]: 7.86 µM (active) | EC50 [19]: > 112 µM (not active) | EC50 [20]: > 112 µM (not active) | EC50 [11]: 1.03 µM (active)

CC(C)NC(=O)N(C)C[C@H]1OCCCC[C@@H](C)Oc2ccc(NC(=O)Nc3ccc(C(F)(F)F)cc3)cc2C(=O)N([C@@H](C)CO)C[C@H]1C
AC50 [14]: 32.7 µM (active) | AC50 (Paired box protein Pax-8): 8.11 µM (active) | AC50 [15]: 48.9 µM (active)

O=C(C1CCCCC1)N1[C@H](CO)[C@@H](c2ccccc2)C12CN(Cc1cccc(Cl)c1)C2
AC50 [21]: 0.651 µM (active) | AC50 [22]: 1.43 µM (active) | AC50 [23]: 0.606 µM (active) | AC50 [24]: 0.353 µM (active)

C[C@H]1CN([C@@H](C)CO)C(=O)c2c(c3ccccc3n2C)-c2ccccc2CO[C@@H]1CN(C)S(=O)(=O)c1ccc(F)cc1
AC50 [21]: 1.4 µM (active) | AC50 [22]: 1.89 µM (active) | AC50 [23]: 1.15 µM (active) | AC50 [24]: 0.755 µM (active)

COc1ccc(C(=O)NC(C)c2nccs2)cc1OC1CCN(C(C)C)CC1 (centres undefined)
IC50 [25]: 12.9 µM (active)

CCCc1cn(CC[C@@H]2CC[C@H](NS(=O)(=O)c3ccc(-c4ccccc4)cc3)[C@H](CO)O2)nn1
AC50 [21]: 0.916 µM (active) | AC50 [22]: 1.39 µM (active) | AC50 [23]: 0.883 µM (active) | AC50 [24]: 0.332 µM (active)

O=S(=O)(c1ccc(N2CCCC2)nc1)N1CCCC1
IC50 [25]: 8.93 µM (active)

COc1cc2nc(SCC(=O)NCc3ccco3)n(Cc3ccc(Cl)cc3)c(=O)c2cc1OC
AC50 [16]: 13.2 µM (active)
